Measurements as given in US4672068A, “Antihypertensive 1,4-dihydropyridines having a conjugated ester” (Fujirebio Kabushiki Kaisha, priority 1984, dated 1987).

How the values were obtained:
[1] = tested on: Male spontaneously hypertensive rats (SHR), arterial blood pressure; test: Depressor response after intraduodenal administration (1 mg/kg), Table 2; format: in vivo, rat
Protocol: Arterial blood pressure was measured through the catherized artery with a pressure transducer (MPU-0.5, manufactured by Nihon Kohden Kabushiki Kaisha). The catheter was inserted into the abdominal aorta via the median coccygcal artery of SHR under light ether anesthesia. The recordings were made on a rectigraph (manufactured by Sanei Sokki Kabushiki Kaisha). The 1,4-dihydropyridine derivatives prepared in the foregoing examples were administered with catheter which was inserted previously into the caudal vein or duodenum at least two hours after the operation. SHR were restrained with wire mesh cage immediately after the operation.

[2] = tested on: Male spontaneously hypertensive rats (SHR), arterial blood pressure; test: Depressor response after intravenous administration (30 μg/kg), Table 1; format: in vivo, rat; conditions: for Duration: '90<' means greater than 90
Protocol: Male spontaneously hypertensive rats (SHR) which had mean arterial blood pressures higher than 140 mmHg were used for the experiments. Arterial blood pressure was measured through the catherized artery with a pressure transducer (MPU-0.5, manufactured by Nihon Kohden Kabushiki Kaisha). The catheter was inserted into the abdominal aorta via the median coccygcal artery of SHR under light ether anesthesia. The recordings were made on a rectigraph (manufactured by Sanei Sokki Kabushiki Kaisha). The 1,4-dihydropyridine derivatives prepared in the foregoing examples were administered with catheter which was inserted previously into the caudal vein or duodenum at least two hours after the operation. SHR were restrained with wire mesh cage immediately after the operation. Each derivative to be tested was dissolved in 1.5% PVP/ethanol, and then diluted with 0.9% saline or intravenous administration (30 μg/kg), or suspended in 5% gum arabic solution of intraduodenal administration (1 mg/kg).

| Structure (SMILES) | The time to reach the lowest BP [1] [min] | ΔBP (Maximum depressor response) [1] [mmHg] | Half-life ([1]; '120<' means greater than 120) [min] | The time to reach the lowest BP [2] [min] | ΔBP (Maximum depressor response) [2] [mmHg] | Duration [2] [min] | halflife (number in parentheses in Duration column) [2] [min] |
| --- | --- | --- | --- | --- | --- | --- | --- |
| C=CCOC(=O)C1=C(C)NC(C)=C(C(=O)OC)C1c1cccc([N+](=O)[O-])c1 (centres unmarked) [C, 4(3-nitrophenyl)-2,6-dimethyl-1,4-dihydropyridine-3,5-dicarboxylic aci 3methyl ester 5allyl ester, reference compound] | 8 | 20 | 20.0 | – | – | – | – |
| COC(=O)C1=C(C)NC(C)=C(C(=O)OCCC=Cc2ccc([N+](=O)[O-])cc2)C1c1cccc([N+](=O)[O-])c1 (centres unmarked) [Example 21, 4(p-nitrophenyl)-3-butenyl methyl 4-(3-nitrophenyl)-2,6-dimethyl-1,4-dihydropyridine-3,5-dicarboxylate] | – | – | – | 1.0 | 70 | > 120 | – |
| COC(=O)C1=C(C)NC(C)=C(C(=O)OCC=Cc2ccccc2)C1c1ccccc1F (centres unmarked) [Example 40, Cinnamyl methyl 4-(2-fluorophenyl)-2,6-dimethyl-1,4-dihydropyridine-3,5-dicarboxylate] | – | – | – | 1.4 | 60 | > 90 | – |
| CC=CC=CCOC(=O)C1=C(C)NC(C)=C(C(=O)OCC=CC)C1c1cccc([N+](=O)[O-])c1 (centres unmarked) [Example 78, 2-butenyl 2,4-hexadienyl 4-(3-nitrophenyl)-2,6-dimethyl-1,4-dihydropyridine-3,5-dicarboxylate] | – | – | – | 2.4 | 23 | – | – |
| COC(=O)C1=C(C)NC(C)=C(C(=O)OCCC=Cc2ccsc2)C1c1cccc([N+](=O)[O-])c1 (centres unmarked) [Example 26, 4-(3-thienyl)-3-butenyl methyl 4-(3-nitrophenyl)-2,6-dimethyl-1,4-dihydropyridine-3,5-dicarboxylate] | – | – | – | 1.5 | 47 | – | – |
| CCOC(=O)C1=C(C)NC(C)=C(C(=O)OCC=CC=Cc2ccccc2)C1c1cccc([N+](=O)[O-])c1 (centres unmarked) [Example 60, ethyl 5-phenyl-2,4-pentadienyl 4-(3-nitrophenyl)-2,6-dimethyl-1,4-dihydropyridine-3,5-dicarboxylate] | – | – | – | 4.0 | 60 | > 90 | – |
| CCOC(=O)C1=C(C)NC(C)=C(C(=O)OC(C)C=Cc2ccccc2)C1c1cccc([N+](=O)[O-])c1 (centres unmarked) [Example 31, 1-methyl-3-phenyl-2-propenyl ethyl 4-(3-nitrophenyl)-2,6-dimethyl-1,4-dihydropyridine-3,5-dicarboxylate] | – | – | – | 40 | 73 | > 170 | – |
| CC=CC=CCOC(=O)C1=C(C)NC(C)=C(C(=O)OC(C)C)C1c1cccc([N+](=O)[O-])c1 (centres unmarked) [Example 68, Isopropyl 2,4-hexadienyl 4-(3-nitrophenyl)-2,6-dimethyl-1,4-dihydropyridine-3,5-dicarboxylate] | – | – | – | 1.4 | 60 | > 90 | 13 |
| CC=CC=CCOC(=O)C1=C(C)NC(C)=C(C(=O)OCC)C1c1cccc([N+](=O)[O-])c1 (centres unmarked) [Example 67, Ethyl 2,4-hexadienyl 4-(3-nitrophenyl)-2,6-dimethyl-1,4-dihydropyridine-3,5-dicarboxylate] | – | – | – | 1.0 | 72 | > 90 | 37 |
| CC=CC=CCOC(=O)C1=C(C)NC(C)=C(C(=O)OCCOC)C1c1cccc([N+](=O)[O-])c1 (centres unmarked) [Example 69, 2-methoxyethyl 2,4-hexadienyl 4-(3-nitrophenyl)-2,6-dimethyl-1,4-dihydropyridine-3,5-dicarboxylate] | – | – | – | 1.0 | 60 | > 90 | – |
| CC1=C(C(=O)OCC#Cc2ccccc2)C(c2cccc([N+](=O)[O-])c2)C(C(=O)OCC=Cc2ccccc2)=C(C)N1 (centres unmarked) [Example 46, Cinnamyl phenylpropargyl 4-(3-nitrophenyl)-2,6-dimethyl-1,4-dihydropyridine-3,5-dicarboxylate] | – | – | – | 20 | 20 | – | – |
| COCCOC(=O)C1=C(C)NC(C)=C(C(=O)OCC=CC=Cc2ccccc2)C1c1cccc([N+](=O)[O-])c1 (centres unmarked) [Example 62, 2-methoxyethyl 5-phenyl-2,4-pentadienyl 4-(3-nitrophenyl)-2,6-dimethyl-1,4-dihydropyridine-3,5-dicarboxylate] | – | – | – | 2.0 | 60 | > 90 | – |
| COC(=O)C1=C(C)NC(C)=C(C(=O)OCC=C(C)c2ccccc2)C1c1cccc([N+](=O)[O-])c1 (centres unmarked) [Example 5, 3-phenyl-2-butenyl methyl 4-(3-nitrophenyl)-2,6-dimethyl-1,4-dihydropyridine-3,5-dicarboxylate] | – | – | – | 1.0 | 44 | 65 | – |
| CC1=C(C(=O)OC(C)C)C(c2cccc([N+](=O)[O-])c2)C(C(=O)OC(C)C=Cc2ccccc2)=C(C)N1 (centres unmarked) [Example 32, 1-methyl-3-phenyl-2-propenyl isopropyl 4-(3-nitrophenyl)-2,6-dimethyl-1,4-dihydropyridine-3,5-dicarboxylate] | – | – | – | 5 | 90 | > 190 | – |
| COC(=O)C1=C(C)NC(C)=C(C(=O)OC(C=Cc2ccccc2)C(C)(C)C)C1c1cccc([N+](=O)[O-])c1 (centres unmarked) [Example 6, 1-tert-butyl-3-phenyl-2-propenyl methyl 4-(3-nitrophenyl)-2,6-dimethyl-1,4-dihydropyridine-3,5-dicarboxylate] | – | – | – | 70 | 55 | > 90 | – |
| COC(=O)C1=C(C)NC(C)=C(C(=O)OCC=CC=Cc2cccs2)C1c1cccc([N+](=O)[O-])c1 (centres unmarked) [Example 51, Methyl 5-(2-thienyl)-2,4-pentadienyl 4-(3-nitrophenyl)-2,6-dimethyl-1,4-dihydropyridine-3,5-dicarboxylate] | – | – | – | 2.0 | 40 | > 90 | – |
| COC(=O)C1=C(C)NC(C)=C(C(=O)OCC=Cc2ccc3ccccc3c2)C1c1cccc([N+](=O)[O-])c1 (centres unmarked) [Example 29, 3-(2-naphthyl)-2-propenyl methyl 4-(3-nitrophenyl)-2,6-dimethyl-1,4-dihydropyridine-3,5-dicarboxylate] | – | – | – | 5.0 | 25 | – | – |
| CC=CC=CCOC(=O)C1=C(C)NC(C)=C(C(=O)OCC=CC=CC)C1c1cccc([N+](=O)[O-])c1 (centres unmarked) [Example 73, bis(2,4-hexadienyl) 4-(3-nitrophenyl)-2,6-dimethyl-1,4-dihydropyridine-3,5-dicarboxylate] | – | – | – | 6.0 | 55 | > 120 | – |
| CC=CC=CCOC(=O)C1=C(C)NC(C)=C(C(=O)OCC(C)C)C1c1cccc([N+](=O)[O-])c1 (centres unmarked) [Example 76, Isobutyl 2,4-hexadienyl 4-(3-nitrophenyl)-2,6-dimethyl-1,4-dihydropyridine-3,5-dicarboxylate] | – | – | – | 6 | 32 | – | – |
| COC(=O)C1=C(C)NC(C)=C(C(=O)OCC(C)=Cc2ccccc2)C1c1cccc([N+](=O)[O-])c1 (centres unmarked) [Example 22, 2-methyl-3-phenyl-2-propenyl methyl 4-(3-nitrophenyl)-2,6-dimethyl-1,4-dihydropyridine-3,5-dicarboxylate] | – | – | – | 1.8 | 50 | 120 | – |
| COCCOC(=O)C1=C(C)NC(C)=C(C(=O)OC(C)C=Cc2ccccc2)C1c1cccc([N+](=O)[O-])c1 (centres unmarked) [Example 34, 1-methyl-3-phenyl-2-propenyl 2-methoxyethyl 4-(3-nitrophenyl)-2,6-dimethyl-1,4-dihydropyridine-3,5-dicarboxylate] | – | – | – | 5 | 45 | > 230 | – |
| CC1=C(C(=O)OCC=Cc2ccccc2)C(c2cccc([N+](=O)[O-])c2)C(C(=O)OCC=Cc2ccccc2)=C(C)N1 (centres unmarked) [Example 45, Dicinnamyl 4-(3-nitrophenyl)-2,6-dimethyl-1,4-dihydropyridine-3,5-dicarboxylate] | – | – | – | 27 | 32 | > 90 | – |
| CCSCCOC(=O)C1=C(C)NC(C)=C(C(=O)OCC=Cc2ccccc2)C1c1cccc([N+](=O)[O-])c1 (centres unmarked) [Example 41, cinnamyl 2-ethylthioethyl 4-(3-nitrophenyl)-2,6-dimethyl-1,4-dihydropyridine-3,5-dicarboxylate] | – | – | – | 5 | 28 | > 120 | – |
| CC=CC=CCOC(=O)C1=C(C)NC(C)=C(C(=O)OCCCC)C1c1cccc([N+](=O)[O-])c1 (centres unmarked) [Example 83, n-butyl 2,4-hexadienyl 4-(3-nitrophenyl)-2,6-dimethyl-1,4-dihydropyridine-3,5-dicarboxylate] | – | – | – | 2.6 | 45 | – | – |
